{
  "source": "patent US20230076310A1",
  "about": "“COMPOSITION USING NOVEL LACTOBACILLUS PLANTARUM KC3 STRAIN FOR PREVENTION OR TREATMENT OF IMMUNE IMPAIRMENT, RESPIRATORY INFLAMMATORY DISEASE, ALLERGY, AND ASTHMA AND USE THEREOF” (KT&G CORPORATION, priority 2020, published 2023)",
  "key": {"[1]": {"tested_on": "croton oil-induced mouse ear edema", "assay": "Croton oil-induced mouse ear edema test", "format": "in vivo, ICR mice", "conditions": "10 mg/kg BW oral, about 4 hours after 2.5% croton oil", "method": "To confirm anti-inflammatory effect of the probiotic lactic acid bacteria (Lactobacillus plantarum KC3, KC3) on ear edema, an experiment was performed according to the croton oil-induced mouse ear edema method by applying the method described in the document (Dong Wook Kim, Kun Ho Son, Hyeun Wook Chang, KiHwan Bae and Sam Sik Kang, Arch Pharm Res., 2003, 3, pp 232-236).\nTo evaluate anti-inflammatory activity of the samples of the Example above, a croton oil-induced mouse ear edema test was carried out, and results thereof were obtained by measuring the ear thickness of the samples as shown in Table 8. […]\nAbout 1 hour after administration, 2.5% croton oil (C0421 available from TCI Company, […]) dissolved in acetone was applied evenly to the inside and outside of the right ear of each mice to induce ear edema. […] Then, the degree of edema in the ears of the mice was measured according to variations in speed by measuring the thickness of both ears using a thickness gauge (Digimatic thickness gauge, 547-301, Mitutoyo, Japan). Here, based on the degree of and the inhibition rate (%) was calculated based on the degree of edema of the mice in the negative control group (0.5% sodium carboxymethyl cellulose (CMC), Sigma-Aldrich 419273), inhibition rates (%) were calculated, and results thereof are shown in Table 8 below."}, "[2]": {"tested_on": "Lactobacillus plantarum KC3", "assay": "Antibiotics resistance experiment (antibiotic strips on LSM solid medium)", "format": "cell-based", "conditions": "antibiotic strip on KC3 lawn, 37° C. for 24 hours", "method": "In order to confirm antibiotics resistance level of the new lactic acid bacteria from the of the Lactobacillus plantarum KC3 the present disclosure, an experiment was performed as follows by applying the method described in the document ([1] Mathur, S. and R. Singh, Antibiotic resistance in food lactic acid bacteria—A review. Int. J. Food Microbiol 2005 105: 281-295); [2] European Food Safety Authority, Guidance on the assessment of bacterial susceptibility to antimicrobials of human and veterinary importance: EFSA Panel on Additives and Products or Substances used in Animal Feed (FEEDAP). The EFSA Journal 2012 2740:1-10. doi:10.2903/j.efsa.2012.2740).\nTo measure the antibiotics resistance level of the strain, an MIC test was carried out. Lactic acid bacteria that were inoculated into an MRS medium (DF0881-17-5, Difco) and cultured at 37° C. for 18 hours were spread on an LSM solid medium (90% iso-sensitest broth (CM0473, Oxoid), 10% MRS medium (DF0881-17-5, Difco), and 1.5% agar (214010, Difco)). Strips for each type of antibiotics, such as Amikacin (92018, Liofilchem srl), Gentamycin (92009, Liofilchem srl), Kanamycin (92034, Liofilchem srl), Streptomycin (92112, Liofilchem srl), Penicillin-G (92102, Liofilchem srl), Oxacillin (92015, Liofilchem srl), Ampicillin (920030, Liofilchem srl), Bacitracin (92019, Liofilchem srl), Rifampicin (92001, Liofilchem srl), Polymyxin B (92004, Liofilchem srl), Chloramphenico I (92075, Liofilchem srl), Vancomycin (92057, Liofilchem srl), and the like, were put on the medium, and the bacteria were grown at 37° C. for 24 hours.\nIn Table 4, R indicates resistance and represents that the size of an inhibition zone is about 0 mm; IS indicates medium resistance and represents that the size of an inhibition zone is in a range of about 1 mm to about 5 mm; and S indicates […] and represents that the size of an inhibition zone is greater than about 5 mm."}},
  "note": "Bridge positions count the residues as written; N and C are the ends. Square brackets hold non-standard residues; d marks the D form. Peptide text beside a SMILES is read from it. * marks the point of attachment. Ileψ(thiazoline)Cys = CC[C@H](C)[C@H](N)C1=N[C@H](C(=O)*)CS1; dOrn = NCCC[C@@H](N)C(=O)O",
  "data": [
    {"molecule": "COc1ccc2c(c1)c(CC(=O)O)c(C)n2C(=O)c1ccc(Cl)cc1", "note": "[Indomethacin]", "values": [
      {"measurement": "Inhibition rate of ear edema (% of control)", "setting": "[1]", "result": "25.6 ± 2.2 % of control"},
      {"measurement": "Thickness (ear)", "setting": "[1]; edema control 0.806 ± 0.068", "result": "0.684 ± 0.054"}
    ]},
    {"molecule": "NCC[C@H](O)C(=O)N[C@@H]1C[C@H](N)[C@@H](O[C@H]2O[C@H](CN)[C@@H](O)[C@H](O)[C@H]2O)[C@H](O)[C@H]1O[C@H]1O[C@H](CO)[C@@H](O)[C@H](N)[C@H]1O", "note": "[Amikacin]", "values": [
      {"measurement": "Antibiotic resistance (class)", "setting": "[2]", "result": "IS (IS indicates medium resistance and represents that the size of an inhibition zone is in a range of about 1 mm to about 5 mm)"},
      {"measurement": "Antibiotic resistance, size of inhibition zone", "setting": "[2]", "result": "(1 mm)"}
    ]},
    {"molecule": "CC1(C)S[C@@H]2[C@H](NC(=O)[C@H](N)c3ccccc3)C(=O)N2[C@H]1C(=O)O", "note": "[Ampicillin]", "values": [
      {"measurement": "Antibiotic resistance (class)", "setting": "[2]", "result": "S (S indicates resistance and represents that the size of an inhibition zone is greater than about 5 mm)"},
      {"measurement": "Antibiotic resistance, size of inhibition zone", "setting": "[2]", "result": "(14 mm)"}
    ]},
    {"molecule": "CC[C@H](C)[C@H](N)C1=N[C@H](C(=O)N[C@@H](CC(C)C)C(=O)N[C@H](CCC(=O)O)C(=O)N[C@H](C(=O)N[C@H]2CCCCNC(=O)[C@H](CC(N)=O)NC(=O)[C@@H](CC(=O)O)NC(=O)[C@H](Cc3cnc[nH]3)NC(=O)[C@@H](Cc3ccccc3)NC(=O)[C@H]([C@@H](C)CC)NC(=O)[C@@H](CCCN)NC2=O)[C@@H](C)CC)CS1", "note": "[Bacitracin] ({Ileψ(thiazoline)Cys}-L[dE]IK[dOrn]I[dF]H[dD]N; lactam 4-C)", "values": [
      {"measurement": "Antibiotic resistance (class)", "setting": "[2]", "result": "S (S indicates resistance and represents that the size of an inhibition zone is greater than about 5 mm)"},
      {"measurement": "Antibiotic resistance, size of inhibition zone", "setting": "[2]", "result": "(7 mm)"}
    ]},
    {"molecule": "CC1(C)S[C@@H]2[C@H](NC(=O)Cc3ccccc3)C(=O)N2[C@H]1C(=O)O", "note": "[Penicillin-G]", "values": [
      {"measurement": "Antibiotic resistance (class)", "setting": "[2]", "result": "IS (IS indicates medium resistance and represents that the size of an inhibition zone is in a range of about 1 mm to about 5 mm)"},
      {"measurement": "Antibiotic resistance, size of inhibition zone", "setting": "[2]", "result": "(5 mm)"}
    ]},
    {"molecule": "NC[C@H]1O[C@H](O[C@H]2[C@H](O)[C@@H](O[C@H]3O[C@H](CO)[C@@H](O)[C@H](N)[C@H]3O)[C@H](N)C[C@@H]2N)[C@H](O)[C@@H](O)[C@@H]1O", "note": "[Kanamycin]", "values": [
      {"measurement": "Antibiotic resistance (class)", "setting": "[2]", "result": "R (R indicates resistance and represents that the size of an inhibition zone is about 0 mm)"},
      {"measurement": "Antibiotic resistance, size of inhibition zone", "setting": "[2]", "result": "(0 mm)"}
    ]},
    {"molecule": "Polymyxin B", "values": [
      {"measurement": "Antibiotic resistance (class)", "setting": "[2]", "result": "R (R indicates resistance and represents that the size of an inhibition zone is about 0 mm)"},
      {"measurement": "Antibiotic resistance, size of inhibition zone", "setting": "[2]", "result": "(0 mm)"}
    ]},
    {"molecule": "CO[C@H]1/C=C/O[C@@]2(C)Oc3c(C)c(O)c4c(O)c(c(/C=N/N5CCN(C)CC5)c(O)c4c3C2=O)NC(=O)/C(C)=C\\C=C\\[C@H](C)[C@H](O)[C@@H](C)[C@@H](O)[C@@H](C)[C@H](OC(C)=O)[C@@H]1C", "note": "[Rifampicin]", "values": [
      {"measurement": "Antibiotic resistance (class)", "setting": "[2]", "result": "S (S indicates resistance and represents that the size of an inhibition zone is greater than about 5 mm)"},
      {"measurement": "Antibiotic resistance, size of inhibition zone", "setting": "[2]", "result": "(7 mm)"}
    ]},
    {"molecule": "Neomycin", "values": [
      {"measurement": "Antibiotic resistance (class)", "setting": "[2]", "result": "IS (IS indicates medium resistance and represents that the size of an inhibition zone is in a range of about 1 mm to about 5 mm)"},
      {"measurement": "Antibiotic resistance, size of inhibition zone", "setting": "[2]", "result": "(3 mm)"}
    ]},
    {"molecule": "[H]/N=C(/N)N[C@H]1[C@H](O)[C@@H](O)[C@H](O[C@@H]2O[C@@H](C)[C@](O)(C=O)[C@H]2O[C@@H]2O[C@@H](CO)[C@H](O)[C@@H](O)[C@@H]2NC)[C@@H](N/C(N)=N\\[H])[C@@H]1O", "note": "[Streptomycin]", "values": [
      {"measurement": "Antibiotic resistance (class)", "setting": "[2]", "result": "R (R indicates resistance and represents that the size of an inhibition zone is about 0 mm)"},
      {"measurement": "Antibiotic resistance, size of inhibition zone", "setting": "[2]", "result": "(0 mm)"}
    ]},
    {"molecule": "Cc1onc(-c2ccccc2)c1C(=O)N[C@@H]1C(=O)N2[C@@H]1SC(C)(C)[C@@H]2C(=O)O", "note": "[Oxacillin]", "values": [
      {"measurement": "Antibiotic resistance (class)", "setting": "[2]", "result": "IS (IS indicates medium resistance and represents that the size of an inhibition zone is in a range of about 1 mm to about 5 mm)"},
      {"measurement": "Antibiotic resistance, size of inhibition zone", "setting": "[2]", "result": "(2 mm)"}
    ]},
    {"molecule": "CCC[C@@H]1C[C@@H](C(=O)N[C@@H]([C@H]2O[C@H](SC)[C@H](O)[C@@H](O)[C@H]2O)[C@@H](C)O)N(C)C1", "note": "[Lincomycin]", "values": [
      {"measurement": "Antibiotic resistance (class)", "setting": "[2]", "result": "S (S indicates resistance and represents that the size of an inhibition zone is greater than about 5 mm)"},
      {"measurement": "Antibiotic resistance, size of inhibition zone", "setting": "[2]", "result": "(10 mm)"}
    ]},
    {"molecule": "O=C(N[C@H](CO)[C@H](O)c1ccc([N+](=O)[O-])cc1)C(Cl)Cl", "note": "[Chloramphenicol]", "values": [
      {"measurement": "Antibiotic resistance (class)", "setting": "[2]", "result": "S (S indicates resistance and represents that the size of an inhibition zone is greater than about 5 mm)"},
      {"measurement": "Antibiotic resistance, size of inhibition zone", "setting": "[2]", "result": "(10 mm)"}
    ]},
    {"molecule": "CO[C@@H]1[C@@H](OC(N)=O)[C@@H](O)[C@H](Oc2ccc3c(O)c(NC(=O)c4ccc(O)c(CC=C(C)C)c4)c(=O)oc3c2C)OC1(C)C", "note": "[Novabiocin]", "values": [
      {"measurement": "Antibiotic resistance (class)", "setting": "[2]", "result": "S (S indicates resistance and represents that the size of an inhibition zone is greater than about 5 mm)"},
      {"measurement": "Antibiotic resistance, size of inhibition zone", "setting": "[2]", "result": "(7 mm)"}
    ]},
    {"molecule": "CN[C@H](CC(C)C)C(=O)N[C@H]1C(=O)N[C@@H](CC(N)=O)C(=O)N[C@H]2C(=O)N[C@H]3C(=O)N[C@H](C(=O)N[C@H](C(=O)O)c4cc(O)cc(O)c4-c4cc3ccc4O)[C@H](O)c3ccc(c(Cl)c3)Oc3cc2cc(c3O[C@@H]2O[C@H](CO)[C@@H](O)[C@H](O)[C@H]2O[C@H]2C[C@](C)(N)[C@H](O)[C@H](C)O2)Oc2ccc(cc2Cl)[C@H]1O", "note": "[Vancomycin]", "values": [
      {"measurement": "Antibiotic resistance (class)", "setting": "[2]", "result": "R (R indicates resistance and represents that the size of an inhibition zone is about 0 mm)"},
      {"measurement": "Antibiotic resistance, size of inhibition zone", "setting": "[2]", "result": "(0 mm)"}
    ]},
    {"molecule": "Gentamycin", "values": [
      {"measurement": "Antibiotic resistance (class)", "setting": "[2]", "result": "IS (IS indicates medium resistance and represents that the size of an inhibition zone is in a range of about 1 mm to about 5 mm)"},
      {"measurement": "Antibiotic resistance, size of inhibition zone", "setting": "[2]", "result": "(3 mm)"}
    ]}
  ]
}
